# Measured values as given in the Kinase Knowledgebase extract (Sharma et al. 2016).
# Columns and labels:
# [1] = molecular target: PIK3CA (human) (UniProt P42336); experiment: Inhibition of PIK3CA Kinase Activity
# [2] = molecular target: PIK3CD (Human) (UniProt O00329); experiment: Inhibition of PIK3CD Kinase Activity
# Sequence of PIK3CD (Human) (O00329 whole entry, looked up): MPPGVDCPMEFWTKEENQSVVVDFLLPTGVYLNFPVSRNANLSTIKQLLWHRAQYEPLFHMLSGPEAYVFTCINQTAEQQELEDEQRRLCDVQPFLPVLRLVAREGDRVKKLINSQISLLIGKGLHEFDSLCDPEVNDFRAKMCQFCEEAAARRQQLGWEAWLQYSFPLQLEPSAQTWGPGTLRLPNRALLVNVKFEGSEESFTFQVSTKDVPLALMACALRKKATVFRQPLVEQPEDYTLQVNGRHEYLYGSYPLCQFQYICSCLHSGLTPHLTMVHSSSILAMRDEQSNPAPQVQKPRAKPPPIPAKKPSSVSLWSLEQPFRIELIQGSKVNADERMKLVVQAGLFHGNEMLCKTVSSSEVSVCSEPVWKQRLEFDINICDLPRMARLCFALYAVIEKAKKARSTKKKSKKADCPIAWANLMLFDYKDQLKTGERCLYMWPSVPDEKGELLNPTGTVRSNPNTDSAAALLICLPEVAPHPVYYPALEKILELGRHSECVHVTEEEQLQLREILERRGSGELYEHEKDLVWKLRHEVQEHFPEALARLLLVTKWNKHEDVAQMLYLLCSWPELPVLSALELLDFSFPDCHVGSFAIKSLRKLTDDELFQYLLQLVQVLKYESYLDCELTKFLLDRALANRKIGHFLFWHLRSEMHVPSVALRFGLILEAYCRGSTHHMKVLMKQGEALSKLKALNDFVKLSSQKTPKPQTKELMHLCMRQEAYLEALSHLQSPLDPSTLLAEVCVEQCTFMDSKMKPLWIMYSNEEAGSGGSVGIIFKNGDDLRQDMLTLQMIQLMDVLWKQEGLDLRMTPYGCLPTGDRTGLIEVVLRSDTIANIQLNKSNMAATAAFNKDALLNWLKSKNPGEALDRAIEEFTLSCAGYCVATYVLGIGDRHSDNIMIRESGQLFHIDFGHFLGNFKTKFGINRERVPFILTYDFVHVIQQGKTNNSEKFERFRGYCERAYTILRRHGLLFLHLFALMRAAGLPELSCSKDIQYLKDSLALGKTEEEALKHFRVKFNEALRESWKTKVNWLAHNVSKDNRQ
# Sequence of PIK3CA (human) (P42336 whole entry, looked up): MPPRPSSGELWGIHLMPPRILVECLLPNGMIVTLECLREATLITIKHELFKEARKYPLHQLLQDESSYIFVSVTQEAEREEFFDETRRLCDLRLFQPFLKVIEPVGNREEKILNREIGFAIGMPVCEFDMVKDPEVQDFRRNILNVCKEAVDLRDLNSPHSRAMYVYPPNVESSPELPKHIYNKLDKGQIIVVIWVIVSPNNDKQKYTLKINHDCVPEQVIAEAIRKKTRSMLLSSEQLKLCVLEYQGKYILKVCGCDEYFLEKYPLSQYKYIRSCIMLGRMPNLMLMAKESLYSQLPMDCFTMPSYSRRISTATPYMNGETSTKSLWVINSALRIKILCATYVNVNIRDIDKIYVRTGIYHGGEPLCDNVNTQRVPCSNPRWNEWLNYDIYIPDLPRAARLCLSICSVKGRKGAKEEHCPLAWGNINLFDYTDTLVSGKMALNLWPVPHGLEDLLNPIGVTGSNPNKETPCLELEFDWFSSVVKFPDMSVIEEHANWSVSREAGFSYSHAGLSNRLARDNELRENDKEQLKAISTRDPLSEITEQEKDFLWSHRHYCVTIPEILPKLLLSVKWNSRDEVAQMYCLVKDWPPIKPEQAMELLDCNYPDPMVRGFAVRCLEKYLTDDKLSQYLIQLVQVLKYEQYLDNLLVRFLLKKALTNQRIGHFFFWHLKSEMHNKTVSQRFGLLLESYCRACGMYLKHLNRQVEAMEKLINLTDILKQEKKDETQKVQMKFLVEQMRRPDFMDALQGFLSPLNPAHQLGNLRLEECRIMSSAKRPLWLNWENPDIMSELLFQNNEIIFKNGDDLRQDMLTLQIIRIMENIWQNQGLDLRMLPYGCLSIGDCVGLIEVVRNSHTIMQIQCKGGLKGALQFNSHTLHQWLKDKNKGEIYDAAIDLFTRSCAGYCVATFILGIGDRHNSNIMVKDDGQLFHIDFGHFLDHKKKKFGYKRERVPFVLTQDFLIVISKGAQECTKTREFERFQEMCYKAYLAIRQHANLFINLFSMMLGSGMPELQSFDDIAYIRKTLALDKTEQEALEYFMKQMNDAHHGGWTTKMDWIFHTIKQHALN
Compound,IC50 [1],IC50 [2]
CC(=NN(C)S(=O)(=O)c1cc([N+](=O)[O-])ccc1N(C)CCN(C)C)c1cnn2ccc(C#N)cc12,330 nM,660 nM
CC(=NNS(=O)(=O)c1cc([N+](=O)[O-])ccc1N(C)CCc1c[nH]cn1)c1cnn2ccc(C#N)cc12.CCCCCC,33 nM,170 nM
CC(=NN(C)S(=O)(=O)c1cc([N+](=O)[O-])ccc1N(C)CCc1ccccn1)c1cnn2ccc(C#N)cc12,480 nM,
CC(=NNS(=O)(=O)c1cc([N+](=O)[O-])ccc1N(C)CCc1ccncc1)c1cnn2ccc(Br)cc12,44 nM,
CC(=NNS(=O)(=O)c1cc([N+](=O)[O-])ccc1N(C)Cc1ccncc1)c1cnn2ccc(Br)cc12,200 nM,
CC(=NNS(=O)(=O)c1cc([N+](=O)[O-])ccc1N(C)CCc1ccncc1)c1cnn2ccc(C#N)cc12,49 nM,420 nM
CC(=NNS(=O)(=O)c1cc([N+](=O)[O-])ccc1N(C)Cc1ccccn1)c1cnn2ccc(Br)cc12,7.3 nM,230 nM
CC(=NNS(=O)(=O)c1cc([N+](=O)[O-])ccc1C)c1cnn2ccc(C#N)cc12,7.3 nM,
CC(=NNS(=O)(=O)c1cc([N+](=O)[O-])ccc1N(C)CCN1CCN(S(C)(=O)=O)CC1)c1cnn2ccc(C#N)cc12,22 nM,220 nM
CC(=NNS(=O)(=O)c1cc([N+](=O)[O-])ccc1N(C)CCn1ccnc1)c1cnn2ccc(Br)cc12,92 nM,
CC(=NNS(=O)(=O)c1cc([N+](=O)[O-])ccc1N(C)CCCN(C)C)c1cnn2ccc(C#N)cc12,100 nM,
CC(=NNS(=O)(=O)c1cc([N+](=O)[O-])ccc1N(C)CCc1c[nH]cn1)c1cnn2ccc(Br)cc12,160 nM,
CC(=NNS(=O)(=O)c1cc([N+](=O)[O-])ccc1N(C)CCn1ccnc1)c1cnn2ccc(C#N)cc12,20 nM,860 nM
CNCCN(C)c1ccc([N+](=O)[O-])cc1S(=O)(=O)NN=C(C)c1cnn2ccc(C#N)cc12,82 nM,390 nM
CC(=NNS(=O)(=O)c1cc([N+](=O)[O-])ccc1N(C)CCN1CCCCC1)c1cnn2ccc(C#N)cc12,55 nM,
CC(=NNS(=O)(=O)c1cc([N+](=O)[O-])ccc1F)c1cnn2ccc(Br)cc12,320 nM,500 nM
CNCCN(C)c1ccc([N+](=O)[O-])cc1S(=O)(=O)NN=C(C)c1cnn2ccc(Br)cc12,57 nM,
CC(=NNS(=O)(=O)c1cc([N+](=O)[O-])ccc1N(C)Cc1cccnc1)c1cnn2ccc(Br)cc12,53 nM,
CC(=NNS(=O)(=O)c1cc([N+](=O)[O-])ccc1N(C)CCN(C)C)c1cnc2ccc(Br)cn12,330 nM,

Compound,IC50 [1],IC50 [2]
CC(=NNS(=O)(=O)c1cc([N+](=O)[O-])ccc1N(C)CCN)c1cnn2ccc(C#N)cc12.CCCCCC,340 nM,
Cc1ccc([N+](=O)[O-])cc1S(=O)(=O)NN=C(c1cnn2ccc(C#N)cc12)C(C)C,39 nM,310 nM
CC(=NNS(=O)(=O)c1cc([N+](=O)[O-])ccc1N(C)CCCN1CCOCC1)c1cnn2ccc(Br)cc12,450 nM,
CC(=NNS(=O)(=O)c1cc([N+](=O)[O-])ccc1N(C)CCc1ccccn1)c1cnn2ccc(C#N)cc12,23 nM,
CC(=NNS(=O)(=O)c1cc([N+](=O)[O-])ccc1F)c1cnc2ccc(Br)cn12,300 nM,
CC(=NN(C)S(=O)(=O)c1cc([N+](=O)[O-])ccc1N(C)Cc1ccccn1)c1cnn2ccc(C#N)cc12,5.2 nM,580 nM
CCC(=NNS(=O)(=O)c1cc([N+](=O)[O-])ccc1C)c1cnn2ccc(C#N)cc12,9.8 nM,
CC(=NNS(=O)(=O)c1cc([N+](=O)[O-])ccc1N(C)CCCN1CCOCC1)c1cnn2ccc(C#N)cc12,330 nM,
CCN(CC)CCN(C)c1ccc([N+](=O)[O-])cc1S(=O)(=O)N(C)N=C(C)c1cnn2ccc(C#N)cc12,460 nM,
CCN(CC)CCN(C)c1ccc([N+](=O)[O-])cc1S(=O)(=O)NN=C(C)c1cnn2ccc(C#N)cc12,140 nM,
CC(=NNS(=O)(=O)c1cc([N+](=O)[O-])ccc1N(C)CCN1CCN(S(C)(=O)=O)CC1)c1cnn2ccc(Br)cc12.CCCCCC,42 nM,
CC(=NNS(=O)(=O)c1cc([N+](=O)[O-])ccc1N(C)Cc1ccccn1)c1cnn2ccc(C#N)cc12,4.8 nM,11 nM
CC(=NNS(=O)(=O)c1cc([N+](=O)[O-])ccc1C)c1cnn2ccc(Br)cc12.CCCCCC,30 nM,220 nM
CC(=NNS(=O)(=O)c1cc([N+](=O)[O-])ccc1N(C)Cc1ccncc1)c1cnn2ccc(C#N)cc12,40 nM,330 nM
CC(=NNS(=O)(=O)c1cc([N+](=O)[O-])ccc1N(C)CCN(C)C)c1cnn2ccc(C#N)cc12.CCCCCC,51 nM,680 nM
CCCCCC.CCN(CC)CCN(C)c1ccc([N+](=O)[O-])cc1S(=O)(=O)NN=C(C)c1cnn2ccc(Br)cc12,230 nM,
CC(=NNS(=O)(=O)c1cc([N+](=O)[O-])ccc1N(C)CCc1ccccn1)c1cnn2ccc(Br)cc12,90 nM,
CC(=NN(C)S(=O)(=O)c1cc([N+](=O)[O-])ccc1N(C)CCN1CCCCC1)c1cnn2ccc(C#N)cc12,240 nM,
